Here are results for 5 compounds from US11547681B2, “N-acylethanolamide derivatives and uses thereof” (ELIEM THERAPEUTICS, INC., priority 2016, dated 2023).

The data set is described as follows: in vitro. The conditions noted are these: male; for Measured concentration of analyte PEA, 0 min / Measured concentration of analyte PEA, 10 min / Measured concentration of analyte PEA, 20 min / Measured concentration of analyte PEA, 30 min / Measured concentration of analyte PEA, 60 min / % Remaining of Initial, 0 min / % Remaining of Initial, 10 min / % Remaining of Initial, 20 min / % Remaining of Initial, 30 min / % Remaining of Initial, 60 min / Measured concentration of PEA (analyte) / % Remaining of Initial / Concentration, analyte PEA / % Remaining of Initial (n = 1): 1 μM; for % Remaining of Initial, 0 min / % Remaining of Initial, 10 min / % Remaining of Initial, 20 min / % Remaining of Initial, 30 min / % Remaining of Initial, 60 min / microsomal CLint at 1 μM / half-life at 1 μM / % Remaining of Initial / % Remaining of Initial (n = 1): microsomes. The protocol: (§1) Reaction mixture, minus cofactors, was prepared as described below. Test article was added into the reaction mixture at a final concentration of 1 μM. […] An aliquot of the reaction mixture (without cofactor) was equilibrated in a shaking water bath at 37° C. for 3 minutes. The reaction was initiated by the addition of cofactor, and the mixture was incubated in a shaking water bath at 37° C. Aliquots (100 μL) were withdrawn at 0, 10, 20, 30, and 60 minutes. Test article samples were immediately combined with 300 μL of ice-cold acetonitrile containing 1% formic acid. Control samples were immediately combined with 400 μL of ice-cold 50/50 acetonitrile (ACN)/dH2O containing 0.1% formic acid and internal standard to terminate the reaction. Samples were then mixed and centrifuged to precipitate proteins. Calibration standards were prepared in matched matrix. Samples and standards were assayed by LC-MS/MS using electrospray ionization for both dosed prodrug and expected drug (PEA). Analytical conditions are outlined in Appendix 8-1. Test article concentration at each time point was compared to test article concentration at time 0 to determine the percent remaining at each time point. Half-lives were calculated using GraphPad software, fitting to a single-phase exponential decay equation.
Reaction mixture, minus cofactors, was prepared as described below. Test article was added into the reaction mixture at a final concentration of 1 μM. […] An aliquot of the reaction mixture (without cofactor) was equilibrated in a shaking water bath at 37° C. for 5 minutes. Reaction was initiated by the addition of cofactor, and the mixture was incubated in a shaking water bath at 37° C. Aliquots (100 μL) were withdrawn at 0, 10, 20, 30, and 60 minutes. Test article samples were immediately combined with 300 μL of ice-cold acetonitrile containing 1% formic acid. Control samples were immediately combined with 400 μL of ice-cold 50/50 acetonitrile (ACN)/dH2O containing 0.1% formic acid and internal standard to terminate the reaction. Samples were then mixed and centrifuged to precipitate proteins. Calibration standards were prepared in matched matrix. Samples and standards were assayed by LC-MS/MS using electrospray ionization for both the dosed prodrug and the expected drug (PEA). Analytical conditions are outlined in Appendix 10-1. Test article concentration at each time point was compared to the test article concentration at time 0 to determine the percent remaining at each time point. Half-lives were calculated using GraphPad software, fitting to a single-phase exponential decay equation.
as §1, with “minutes. Reaction” for “minutes. The reaction”, “300 μL,” for “300 μL”, “Appendix 13-1.” for “Appendix 8-1.”
Reaction mixture, minus cofactors, was prepared as described below.

For `CCCCCCCCCCCCCCCC(=O)NCCOC(=O)CCC(=O)OC[C@H]1O[C@@](CO)(O[C@H]2O[C@H](CO)[C@@H](O)[C@H](O)[C@H]2O)[C@@H](O)[C@@H]1O` [Compound I-7], the “Measured concentration of analyte PEA, 0 min” value (Beagle, dog, 0 min) came to 0.59 µM and the “Measured concentration of analyte PEA, 0 min” value (CD-1, mouse, 0 min) worked out at 0.28 µM. Besides, the “Measured concentration of analyte PEA, 10 min” value (from here on “Measured concentration … 10 min”) stood at 0.50 µM (Beagle, dog, 10 min) and 0.29 µM (CD-1, mouse, 10 min). For the same compound, the “Measured concentration of analyte PEA, 20 min” value (“Measured concentration … 20 min” below) was 0.47 µM (Beagle, dog, 20 min) and 0.18 µM (CD-1, mouse, 20 min). Besides, the “Measured concentration of analyte PEA, 30 min” value (“Measured concentration … 30 min” below) amounted to 0.38 µM (Beagle, dog, 30 min) and 0.11 µM (CD-1, mouse, 30 min). The “Measured concentration of analyte PEA, 60 min” value (shortened to “Measured concentration … 60 min”) (Beagle, dog, 60 min) amounted to 0.20 µM and the “Measured concentration … 60 min” value (CD-1, mouse, 60 min) is 0.034 µM. Further, the “% Remaining of Initial, 0 min” value by setting is: (Beagle, dog, 0 h) 100%; (CD-1, mouse, 0 h) 100%. The “% Remaining of Initial, 10 min” value is, setting by setting: (Beagle, dog, 10 min) 1.6%; (CD-1, mouse, 10 min) 1.7%. For the same compound, the “% Remaining of Initial, 20 min” value stood at 1.4% (Beagle, dog, 20 min) and 1.2% (CD-1, mouse, 20 min). Moreover, the “% Remaining of Initial, 30 min” value reads like this: (Beagle, dog, 0.5 h) 1.3%; (CD-1, mouse, 0.5 h) less than 1.0%. Further, the “% Remaining of Initial, 60 min” value is listed as less than 1.0% (Beagle, dog, 1 h) and less than 1.0% (CD-1, mouse, 1 h). The microsomal CLint at 1 μM is 823 µL/min/mg (Beagle, dog) and 814 µL/min/mg (CD-1, mouse). This compound also returned a half-life at 1 μM (Beagle, dog) of 1.7 min and a half-life at 1 μM (CD-1, mouse) of 1.7 min.
`CCCCCCCCCCCCCCCC(=O)NCCOC(=O)CCC(=O)OC(CO)CO` [Compound I-8]: the “Measured concentration of PEA (analyte)” value (Beagle, dog, 0 min) is 0.33 µM; the “Measured concentration of PEA (analyte)” value (Beagle, dog, 10 min) was determined as 0.54 µM; the “Measured concentration of PEA (analyte)” value (Beagle, dog, 20 min) is 0.46 µM; the “Measured concentration of PEA (analyte)” value (Beagle, dog, 30 min) was found to be 0.44 µM; the “Measured concentration of PEA (analyte)” value (Beagle, dog, 60 min) was 0.20 µM; the “Measured concentration of PEA (analyte)” value (CD-1, mouse, 0 min) was 0.45 µM. Also, the “Measured concentration of PEA (analyte)” value runs as follows: (CD-1, mouse, 10 min) 0.30 µM; (CD-1, mouse, 20 min) 0.15 µM; (CD-1, mouse, 30 min) 0.086 µM; (CD-1, mouse, 60 min) 0 µM. Besides, the “% Remaining of Initial” value reads like this: (Beagle, dog, 0 h) 100%; (Beagle, dog, 10 min) less than 1.0%; (Beagle, dog, 20 min) less than 1.0%; (Beagle, dog, 0.5 h) less than 1.0%; (Beagle, dog, 1 h) less than 1.0%; (CD-1, mouse, 0 h) 100%. Besides, the “% Remaining of Initial” value is less than 1.0% (CD-1, mouse, 10 min); less than 1.0% (CD-1, mouse, 20 min); less than 1.0% (CD-1, mouse, 0.5 h); less than 1.0% (CD-1, mouse, 1 h). Besides, the microsomal CLint at 1 μM is greater than 1380 µL/min/mg (Beagle, dog) and greater than 1380 µL/min/mg (CD-1, mouse). Besides, the half-life at 1 μM is, setting by setting: (Beagle, dog) less than 1 min; (CD-1, mouse) less than 1 min.
Regarding `CCCCCCCCCCCCCCCC(=O)NCCOC(=O)CCC(=O)OCC(O)CO` (stereo not drawn) [Compound I-9], the “Measured concentration of analyte PEA, 0 min” value runs as follows: (Beagle, dog, 0 min) 0.39 µM; (CD-1, mouse, 0 min) 0.52 µM. Also, the “Measured concentration … 10 min” value turned out to be 0.42 µM (Beagle, dog, 10 min) and 0.29 µM (CD-1, mouse, 10 min). Also, the “Measured concentration … 20 min” value (Beagle, dog, 20 min) was found to be 0.32 µM and the “Measured concentration … 20 min” value (CD-1, mouse, 20 min) turned out to be 0.18 µM. Moreover, the “Measured concentration … 30 min” value by setting is: (Beagle, dog, 30 min) 0.26 µM; (CD-1, mouse, 30 min) 0.11 µM. Further, the “Measured concentration … 60 min” value is 0.18 µM (Beagle, dog, 60 min) and 0.036 µM (CD-1, mouse, 60 min). Also, the “% Remaining of Initial, 0 min” value reads like this: (Beagle, dog, 0 h) 100%; (CD-1, mouse, 0 h) 100%. In addition, the “% Remaining of Initial, 10 min” value (Beagle, dog, 10 min) is given as less than 1.0% and the “% Remaining of Initial, 10 min” value (CD-1, mouse, 10 min) is on record as less than 1.0%. Also, the “% Remaining of Initial, 20 min” value by setting is: (Beagle, dog, 20 min) less than 1.0%; (CD-1, mouse, 20 min) less than 1.0%. For the same compound, the “% Remaining of Initial, 30 min” value is, setting by setting: (Beagle, dog, 0.5 h) less than 1.0%; (CD-1, mouse, 0.5 h) less than 1.0%. Besides, the “% Remaining of Initial, 60 min” value reads like this: (Beagle, dog, 1 h) less than 1.0%; (CD-1, mouse, 1 h) less than 1.0%. Also, the microsomal CLint at 1 μM runs as follows: (Beagle, dog) greater than 1380 µL/min/mg; (CD-1, mouse) greater than 1380 µL/min/mg. In addition, the half-life at 1 μM by setting is: (Beagle, dog) less than 1 min; (CD-1, mouse) less than 1 min.
Regarding `CCCCCCCCCCCCCCCC(=O)NCCOC(=O)CCC(=O)OCC(COC(=O)CCC)OC(=O)CCC` (stereo not drawn) [Compound I-11], the “Measured concentration of analyte PEA, 0 min” value reads like this: (Beagle, dog, 0 min) 0.032 µM; (CD-1, mouse, 0 min) 0.22 µM. In addition, the “Measured concentration … 10 min” value runs as follows: (Beagle, dog, 10 min) 0.32 µM; (CD-1, mouse, 10 min) 0.32 µM. Further, the “Measured concentration … 20 min” value was found to be 0.26 µM (Beagle, dog, 20 min) and 0.18 µM (CD-1, mouse, 20 min). In addition, the “Measured concentration … 30 min” value is, setting by setting: (Beagle, dog, 30 min) 0.20 µM; (CD-1, mouse, 30 min) 0.12 µM. For the same compound, the “Measured concentration … 60 min” value reads like this: (Beagle, dog, 60 min) 0.097 µM; (CD-1, mouse, 60 min) 0.030 µM. For the same compound, the “% Remaining of Initial, 0 min” value (Beagle, dog, 0 h) is 100% and the “% Remaining of Initial, 0 min” value (CD-1, mouse, 0 h) was 100%. For the same compound, the “% Remaining of Initial, 10 min” value (Beagle, dog, 10 min) amounted to 3.6% and the “% Remaining of Initial, 10 min” value (CD-1, mouse, 10 min) is given as 3.2%. For the same compound, the “% Remaining of Initial, 20 min” value is, setting by setting: (Beagle, dog, 20 min) less than 1.0%; (CD-1, mouse, 20 min) less than 1.0%. In addition, the “% Remaining of Initial, 30 min” value (Beagle, dog, 0.5 h) was less than 1.0% and the “% Remaining of Initial, 30 min” value (CD-1, mouse, 0.5 h) is less than 1.0%. Moreover, the “% Remaining of Initial, 60 min” value is, setting by setting: (Beagle, dog, 1 h) less than 1.0%; (CD-1, mouse, 1 h) less than 1.0%. Also, the microsomal CLint at 1 μM was 665 µL/min/mg (Beagle, dog) and 687 µL/min/mg (CD-1, mouse). In addition, the half-life at 1 μM worked out at 2.1 min (Beagle, dog) and 2 min (CD-1, mouse).
For `CCCCC/C=C\C/C=C\CCCCCCCC(=O)OCC(COC(=O)CCC(=O)OCCNC(=O)CCCCCCCCCCCCCCC)OC(=O)CCCCCCC/C=C\C/C=C\CCCCC` (stereo not drawn) [Compound I-13], the “Concentration, analyte PEA” value stood at 0 nM (Beagle, dog, 0 min); 0 nM (Beagle, dog, 10 min); 0 nM (Beagle, dog, 20 min); 0 nM (Beagle, dog, 30 min); 0 nM (Beagle, dog, 60 min); 0 nM (CD-1, mouse, 0 min). Besides, the “Concentration, analyte PEA” value runs as follows: (CD-1, mouse, 10 min) 0 nM; (CD-1, mouse, 20 min) 0 nM; (CD-1, mouse, 30 min) 0 nM; (CD-1, mouse, 60 min) 0 nM. Further, the “% Remaining of Initial (n = 1)” value came to 100% (Beagle, dog, 0 h); 78% (Beagle, dog, 10 min); 76% (Beagle, dog, 20 min); 56% (Beagle, dog, 0.5 h); 32% (Beagle, dog, 1 h); 100% (CD-1, mouse, 0 h). Further, the “% Remaining of Initial (n = 1)” value came to 69% (CD-1, mouse, 10 min); 75% (CD-1, mouse, 20 min); 54% (CD-1, mouse, 0.5 h); 44% (CD-1, mouse, 1 h). Further, the intrinsic metabolic clearance (microsomal CLint) at 1 μM reads like this: (Beagle, dog) 36.2 µL/min/mg; (CD-1, mouse) 29.1 µL/min/mg. Besides, the half-life at 1 μM is, setting by setting: (Beagle, dog) 38 min; (CD-1, mouse) 48 min.
